Target: Citron kinase (Homo sapiens (Human), UniProt O14578)
Assay: Radiometric citron kinase assay (Eurofins Cat #16-040KP)
Type: biochemical
Conditions: mean of at least two independent assays; read-out: Radiometric CitK IC50
Description: In some embodiments, the step of contacting the sample with the compound comprises administering the compound to a subject (e.g., a subject) suffering from cancer. Methods of determining kinase inhibition are well known in the art. For example, kinase activity of an enzyme and the inhibitory capacity of a test compound can be determined by measuring enzyme specific phosphorylation of a substrate. Commercial assays and kits can be employed. For example, kinase inhibition can be determined using a radiometric binding assay, such as using KinaseProfiler™ technology (Eurofins Discovery). This assay method directly detects product formation without the use of modified substrates or coupling enzymes. Test compounds are incubated with kinase, substrate, required cofactors and radioisotope labeled ATP. Following incubation, unreacted radioactive ATP is removed by washing and incorporation of the radiolabeled phosphate into the kinase substrate is assayed to detect phosphoryltransferase activity, which is directly proportional to the amount of phosphorylated substrate. Inhibition of the kinase by a kinase inhibitor prevents phosphorylation of the substrate and thereby limits the incorporation of radiolabeled phosphate. Such an assay is compatible with a microwell assay format, allowing simultaneous determination of IC50 of multiple compounds.
Compounds were screened for biochemical kinase activity (Eurofins Discovery, France) using one of two assays. […] All values in Table 1 are the mean of at least two independent assays.

Chain of Citron kinase (O14578 whole entry): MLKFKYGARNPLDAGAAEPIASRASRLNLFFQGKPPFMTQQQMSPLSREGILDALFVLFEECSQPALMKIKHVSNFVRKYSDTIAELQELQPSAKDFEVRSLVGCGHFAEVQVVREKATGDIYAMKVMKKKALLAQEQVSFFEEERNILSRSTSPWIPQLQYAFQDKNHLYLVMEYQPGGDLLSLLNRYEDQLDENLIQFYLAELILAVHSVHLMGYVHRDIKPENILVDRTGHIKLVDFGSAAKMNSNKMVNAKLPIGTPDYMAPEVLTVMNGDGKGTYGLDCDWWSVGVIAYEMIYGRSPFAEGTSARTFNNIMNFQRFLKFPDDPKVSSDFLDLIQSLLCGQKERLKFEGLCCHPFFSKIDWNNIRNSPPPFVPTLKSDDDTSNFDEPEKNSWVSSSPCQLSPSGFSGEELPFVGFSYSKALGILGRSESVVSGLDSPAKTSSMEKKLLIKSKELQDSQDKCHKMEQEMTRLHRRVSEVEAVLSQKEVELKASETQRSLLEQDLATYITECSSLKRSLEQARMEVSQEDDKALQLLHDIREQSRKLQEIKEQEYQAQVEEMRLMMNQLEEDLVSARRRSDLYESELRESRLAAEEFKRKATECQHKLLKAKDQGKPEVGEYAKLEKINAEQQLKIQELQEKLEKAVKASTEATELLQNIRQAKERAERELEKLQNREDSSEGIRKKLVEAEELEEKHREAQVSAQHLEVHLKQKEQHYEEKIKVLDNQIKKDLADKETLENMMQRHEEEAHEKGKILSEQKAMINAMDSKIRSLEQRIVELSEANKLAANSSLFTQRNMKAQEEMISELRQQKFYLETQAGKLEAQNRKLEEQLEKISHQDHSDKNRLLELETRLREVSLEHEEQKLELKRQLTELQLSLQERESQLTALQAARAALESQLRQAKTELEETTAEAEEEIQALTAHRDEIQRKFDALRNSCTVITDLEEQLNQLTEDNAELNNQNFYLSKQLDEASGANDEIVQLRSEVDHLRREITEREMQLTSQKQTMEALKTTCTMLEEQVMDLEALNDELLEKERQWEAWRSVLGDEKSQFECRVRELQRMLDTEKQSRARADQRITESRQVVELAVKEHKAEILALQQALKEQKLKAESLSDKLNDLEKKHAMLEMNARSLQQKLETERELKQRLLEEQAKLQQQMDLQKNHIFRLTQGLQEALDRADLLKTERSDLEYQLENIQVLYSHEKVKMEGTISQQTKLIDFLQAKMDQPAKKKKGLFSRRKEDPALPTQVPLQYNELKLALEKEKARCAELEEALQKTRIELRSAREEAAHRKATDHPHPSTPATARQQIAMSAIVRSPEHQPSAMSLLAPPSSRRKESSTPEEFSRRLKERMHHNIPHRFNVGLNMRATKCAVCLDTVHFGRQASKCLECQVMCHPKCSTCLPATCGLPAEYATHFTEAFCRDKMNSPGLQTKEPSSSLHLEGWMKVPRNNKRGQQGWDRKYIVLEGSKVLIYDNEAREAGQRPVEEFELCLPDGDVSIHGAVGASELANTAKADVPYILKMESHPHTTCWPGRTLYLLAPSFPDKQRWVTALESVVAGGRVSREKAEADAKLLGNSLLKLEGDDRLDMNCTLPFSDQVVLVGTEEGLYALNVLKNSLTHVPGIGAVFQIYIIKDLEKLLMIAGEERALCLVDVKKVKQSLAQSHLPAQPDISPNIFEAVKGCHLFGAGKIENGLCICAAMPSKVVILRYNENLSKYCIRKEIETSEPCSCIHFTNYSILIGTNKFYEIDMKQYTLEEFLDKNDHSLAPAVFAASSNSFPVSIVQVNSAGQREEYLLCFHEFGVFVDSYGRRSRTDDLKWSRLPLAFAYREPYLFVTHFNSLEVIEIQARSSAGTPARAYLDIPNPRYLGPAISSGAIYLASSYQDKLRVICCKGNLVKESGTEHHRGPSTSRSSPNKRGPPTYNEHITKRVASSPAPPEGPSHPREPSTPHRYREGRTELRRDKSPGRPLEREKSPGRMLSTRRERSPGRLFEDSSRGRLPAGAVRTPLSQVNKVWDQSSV

`CCc1cc(NC(=O)[C@H](N)C(C)(C)C)ccc1-c1ccnc2[nH]c(C)cc12` [Compound F-93, (2R)-2-Amino-N-[3-ethyl-4-(2-methyl-1H-pyrrolo[2,3-b]pyridin-4-yl)phenyl]-3,3-dimethyl-butanamide] gave an IC50 of 0.121 µM.
Work on `CN[C@H](CC(C)C)C(=O)Nc1ccc(-c2ccnc3[nH]c(C)cc23)cc1` [Compound F-94, (2R)-4-Methyl-2-(methylamino)-N-[4-(2-methyl-1H-pyrrolo[2,3-b]pyridin-4-yl)phenyl]pentanamide] yielded an IC50 of 0.0437 µM.
Work on `Cc1cc2c(-c3ccc(NC(=O)[C@H](N)CC(C)C)nc3C)ccnc2[nH]1` [Compound F-95, (2R)-2-Amino-4-methyl-N-[6-methyl-5-(2-methyl-1H-pyrrolo[2,3-b]pyridin-4-yl)-2-pyridyl]pentanamide] yielded an IC50 of 0.24 µM.
For `Cc1cc2c(-c3ncc(NC(=O)[C@H](N)CC(C)(C)C)cc3C)ccnc2[nH]1` [Compound F-96, (2R)-2-Amino-4,4-dimethyl-N-[5-methyl-6-(2-methyl-1H-pyrrolo[2,3-b]pyridin-4-yl)-3-pyridyl]pentanamide], the IC50 was 0.0969 µM.
`Cc1cc2c(-c3ccc(NC(=O)[C@H](N)CC(C)(C)C)cc3C(F)F)ccnc2[nH]1` [Compound F-97, (2R)-2-Amino-N-[3-(difluoromethyl)-4-(2-methyl-1H-pyrrolo[2,3-b]pyridin-4-yl)phenyl]-4,4-dimethyl-pentanamide] was tested, and the IC50 was 0.0293 µM.
`Cc1cc(NC(=O)[C@H](N)CC(C)C)ccc1-c1ccnc2[nH]c(C(F)(F)F)cc12` [Compound F-98, (2R)-2-Amino-4-methyl-N-[3-methyl-4-[2-(trifluoromethyl)-1H-pyrrolo[2,3-b]pyridin-4-yl]phenyl]pentanamide] showed an IC50 of 0.0304 µM.
`Cc1cc(NC(=O)[C@H](N)CC(C)(C)C)ccc1-c1ccnc2[nH]c(C(F)(F)F)cc12` [Compound F-99, (2R)-2-Amino-4,4-dimethyl-N-[3-methyl-4-[2-(trifluoromethyl)-1H-pyrrolo[2,3-b]pyridin-4-yl]phenyl]pentanamide] showed an IC50 of 0.103 µM.
Work on `Cc1cc(NC(=O)[C@H](N)C(C)(C)C)ccc1-c1ccnc2[nH]c(C(F)(F)F)cc12` [Compound F-100, (2R)-2-Amino-3,3-dimethyl-N-[3-methyl-4-[2-(trifluoromethyl)-1H-pyrrolo[2,3-b]pyridin-4-yl]phenyl]butanamide] yielded an IC50 of 0.38 µM.
`Cc1cc(NC(=O)[C@H](N)CC(C)C)ccc1-c1ccnc2[nH]c(C(F)F)cc12` [Compound F-101, (2R)-2-Amino-N-[4-[2-(difluoromethyl)-1H-pyrrolo[2,3-b]pyridin-4-yl]-3-methyl-phenyl]-4-methyl-pentanamide] gave an IC50 of 0.0181 µM.
`Cc1cc(NC(=O)[C@H](N)CC(C)(C)C)ccc1-c1ccnc2[nH]c(C(F)F)cc12` [Compound F-102, (2R)-2-Amino-N-[4-[2-(difluoromethyl)-1H-pyrrolo[2,3-b]pyridin-4-yl]-3-methyl-phenyl]-4,4-dimethyl-pentanamide] was tested, and the IC50 was 0.0117 µM.
`Cc1cc(NC(=O)[C@H](N)C(C)(C)C)ccc1-c1ccnc2[nH]c(C(F)F)cc12` [Compound F-103, (2R)-2-Amino-N-[4-[2-(difluoromethyl)-1H-pyrrolo[2,3-b]pyridin-4-yl]-3-methyl-phenyl]-3,3-dimethyl-butanamide] gave an IC50 of 0.0681 µM.
`CC(C)(C)C[C@@H](N)C(=O)Nc1ccc(-c2ccnc3[nH]c(C(F)(F)F)cc23)nc1` [Compound F-104, (2R)-2-Amino-4,4-dimethyl-N-[6-[2-(trifluoromethyl)-1H-pyrrolo[2,3-b]pyridin-4-yl]-3-pyridyl]pentanamide] showed an IC50 of 0.418 µM.
With `CC(C)(C)C[C@@H](N)C(=O)Nc1ccc(-c2ccnc3[nH]c(C(F)F)cc23)nc1` [Compound F-105, (2R)-2-Amino-N-[6-[2-(difluoromethyl)-1H-pyrrolo[2,3-b]pyridin-4-yl]-3-pyridyl]-4,4-dimethyl-pentanamide] the IC50 was 0.266 µM.
`Cc1cnc2[nH]ccc2c1-c1ccc(NC(=O)[C@H](N)C(C)(C)C)cc1` [Compound F-107, (2R)-2-Amino-3,3-dimethyl-N-[4-(5-methyl-1H-pyrrolo[2,3-b]pyridin-4-yl)phenyl]butanamide] showed an IC50 of 0.371 µM.
Molecule `CC(C)(C)[C@@H](N)C(=O)Nc1nc(-c2ccnc3[nH]ccc23)cs1` [Compound F-111, (2R)-2-Amino-3,3-dimethyl-N-[4-(1H-pyrrolo[2,3-b]pyridin-4-yl)thiazol-2-yl]butanamide] has an IC50 of 0.0296 µM.
`Cc1cc2c(-c3csc(NC(=O)[C@H](N)C(C)(C)C)n3)ccnc2[nH]1` [Compound F-112, (2R)-2-Amino-3,3-dimethyl-N-[4-(2-methyl-1H-pyrrolo[2,3-b]pyridin-4-yl)thiazol-2-yl]butanamide] gave an IC50 of 0.122 µM.
`Cc1cc2c(-c3csc(NC(=O)[C@@H](N)C(C)(C)C)n3)ccnc2[nH]1` [Compound F-113, (2S)-2-Amino-3,3-dimethyl-N-[4-(2-methyl-1H-pyrrolo[2,3-b]pyridin-4-yl)thiazol-2-yl]butanamide] gave an IC50 of 0.111 µM.
`Cc1cc2c(-c3csc(NC(=O)[C@H](N)C(C)C)n3)ccnc2[nH]1` [Compound F-114, (2R)-2-Amino-3-methyl-N-[4-(2-methyl-1H-pyrrolo[2,3-b]pyridin-4-yl)thiazol-2-yl]butanamide] gave an IC50 of 0.244 µM.
For `Cc1cc2c(-c3csc(NC(=O)C(N)C4(C(F)(F)F)CC4)n3)ccnc2[nH]1` (centres unmarked) [Compound F-115, 2-Amino-N-[4-(2-methyl-1H-pyrrolo[2,3-b]pyridin-4-yl)thiazol-2-yl]-2-[1-(trifluoromethyl)cyclopropyl]acetamide], the IC50 was 0.129 µM.
Work on `Cc1cc2c(-c3csc(NC(=O)[C@H](N)CC(C)C)n3)ccnc2[nH]1` [Compound F-116, (2R)-2-Amino-4-methyl-N-[4-(2-methyl-1H-pyrrolo[2,3-b]pyridin-4-yl)thiazol-2-yl]pentanamide] yielded an IC50 of 0.368 µM.
Molecule `Cc1cc2c(-c3nc(NC(=O)[C@H](N)C(C)(C)C)sc3C)ccnc2[nH]1` [Compound F-117, (2R)-2-Amino-3,3-dimethyl-N-[5-methyl-4-(2-methyl-1H-pyrrolo[2,3-b]pyridin-4-yl)thiazol-2-yl]butanamide] has an IC50 of 3 µM.
Molecule `Cc1cc(NC(=O)[C@H](N)Cc2ccccc2)ccc1-c1ccnc2[nH]ccc12` [Compound F-127, (2R)-2-Amino-N-[3-methyl-4-(1H-pyrrolo[2,3-b]pyridin-4-yl)phenyl]-3-phenyl-propanamide] has an IC50 of 0.144 µM.
Molecule `COc1cc(NC(=O)[C@H](N)Cc2ccccc2)ccc1-c1ccnc2[nH]ccc12` [Compound F-128, (2R)-2-Amino-N-[3-methoxy-4-(1H-pyrrolo[2,3-b]pyridin-4-yl)phenyl]-3-phenyl-propanamide] has an IC50 of 0.598 µM.
Molecule `N[C@@H](Cc1ccccc1)C(=O)Nc1ccc(-c2ccnc3[nH]ccc23)c(C(F)(F)F)c1` [Compound F-129, (2S)-2-Amino-3-phenyl-N-[4-(1H-pyrrolo[2,3-b]pyridin-4-yl)-3-(trifluoromethyl)phenyl]propanamide] has an IC50 of 3 µM.
Molecule `N[C@H](Cc1ccccc1)C(=O)Nc1ccc(-c2ccnc3[nH]ccc23)c(C(F)(F)F)c1` [Compound F-130, (2R)-2-Amino-3-phenyl-N-[4-(1H-pyrrolo[2,3-b]pyridin-4-yl)-3-(trifluoromethyl)phenyl]propanamide] has an IC50 of 1.42 µM.
Molecule `COc1cc(-c2ccnc3[nH]ccc23)ccc1NC(=O)[C@H](N)Cc1ccccc1` [Compound F-131, (2R)-2-Amino-N-[2-methoxy-4-(1H-pyrrolo[2,3-b]pyridin-4-yl)phenyl]-3-phenyl-propanamide] has an IC50 of 0.301 µM.

Reference: patent publication US20250243196A1, “CITRON KINASE INHIBITORS” (The Cleveland Clinic Foundation, priority 2021, published 2025)
